Measured values from article PMC12459314, “Subcutaneous administration of a novel TRPM8 antagonist reverses cold hypersensitivity while attenuating the drop in core body temperature” (British journal of pharmacology, 2024).

Test: Partition coefficient (logD), shake flask method
Type: physicochemical
Settings: n-octanol / pH 7.4 phosphate buffer, pH 7.4
Procedure: The partition coefficient (logD) at pH 7.4 of VBJ103 was determined using the shake flask method by Absorption Systems (Exton, PA, USA). The buffer was prepared by combining 50 ml of 0.2-M solution of KH2PO4 with 150 ml of dH2O and then adjusting to pH 7.4 with 10-N NaOH. In a single incubation, 15 μl of a 10-mM DMSO solution of each test article was added to test tubes which contained 0.75 ml of n-octanol and 0.75 ml of pH 7.4 phosphate buffer. Testosterone was also introduced to each tube as an internal control, also at a dosing concentration of 100 μM. These samples were gently mixed on a benchtop rotator for 1 h at room temperature. The tubes were then removed from the rotator, and the aqueous and organic phases were allowed to separate for 1 h. An aliquot of the organic layer was taken and diluted 200-fold into a mixture of 1:1 buffer: acetonitrile (ACN). An aliquot of the aqueous layer was taken and diluted 2-fold, 10-fold and 200-fold into a mixture of 1:1 buffer: ACN. All samples were assayed by LC–MS/MS on a Thermo BDS Hypersil C18 column (30 × 2.1 mm, 3 μm) using electrospray ionization, as previously reported ([Journigan et al., 2020]).

logD at 1 h: 3.21
Compound: O=C(NC1CCC2(CCCC2)CC1)c1ccc(-c2ccccc2)cc1 [VBJ103, N-(Spiro[4.5]decan-8-yl)-[1,1′-biphenyl]-4-carboxamide]
